Results on 10 compounds are retold here after PubChem BioAssay (NCI).

Some test systems named below: SF-295 CNS; SR leukemia; HCT-15 colon; UACC-257 melanoma; HL-60(TB) leukemia; SNB-19 CNS; EKVX NSCLC; M14 melanoma; ACHN renal; 786-0 renal.
Assay in all cases: growth of human tumour cells (NCI), 48 h

SMILES strings stand for the structures.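 Five concentrations, 48 hours, 96-well plates. At the GI50, growth is halved. TGI denotes the concentration required for complete inhibition of growth.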 Some results are limits rather than exact numbers.

Turning to `CC(=O)O[C@@H]1C[C@@]2(C)[C@@H]3CC=C4[C@@H](C[C@H](O)C(=O)C4(C)C)[C@]3(C)C(=O)C[C@]2(C)[C@H]1[C@@](C)(O)C(=O)/C=C/C(C)(C)OC(C)=O`, the TGI with SF-295 CNS is 34.1 µM; in the assay on SR leukemia, greater than 53.4 µM; in the assay on HCT-15 colon, 12.3 µM; with UACC-257 melanoma, 50.4 µM; in the assay on HL-60(TB) leukemia it was greater than 20.1 µM; in the assay with SNB-19 CNS it was 7.38 µM. Also, the TGI was 26 µM with EKVX NSCLC, 14.9 µM in the assay with M14 melanoma, 3.44 µM with ACHN renal and greater than 70.4 µM with 786-0 renal.
Regarding `Cc1[nH]c(-c2cc(N)ccc2Cl)c2c1C(=O)CCCC2`, the GI50 with SF-295 CNS was 8.01 µM; in the assay on SR leukemia, 2640 nM; with HCT-15 colon, 3300 nM; in the assay with UACC-257 melanoma it was 3.49 µM; in the assay on HL-60(TB) leukemia it was 2030 nM; in the assay with SNB-19 CNS, 4530 nM. The GI50 with EKVX NSCLC is 6090 nM; with M14 melanoma, 4370 nM; with ACHN renal it was 3.42 µM; in the assay on 786-0 renal, 3240 nM. Further, the TGI in the assay on SF-295 CNS is greater than 100 µM; in the assay with SR leukemia it was greater than 100 µM; with HCT-15 colon, greater than 100 µM; in the assay on UACC-257 melanoma it was greater than 100 µM; in the assay with HL-60(TB) leukemia, 6.79 µM; in the assay with SNB-19 CNS, greater than 100 µM. The TGI in the assay on EKVX NSCLC, with M14 melanoma, in the assay with ACHN renal and in the assay on 786-0 renal was greater than 100 µM throughout.
`CN1CCN(CCCCCN=c2cc3c(=O)n(CCCCCN4CCN(C)CC4)c(=O)c4c(NCCCCCN5CCN(C)CC5)cc5c(O)n(CCCCCN6CCN(C)CC6)c(=O)c2c5c4-3)CC1`: the GI50 is 15.7 µM with SF-295 CNS; 4010 nM with SR leukemia; greater than 100000 nM in the assay on HCT-15 colon; 2.6 µM in the assay with UACC-257 melanoma; 7160 nM in the assay on HL-60(TB) leukemia; 2140 nM in the assay with SNB-19 CNS. In addition, the GI50 with EKVX NSCLC is 2930 nM; in the assay on M14 melanoma, 35000 nM; in the assay with ACHN renal, 43.3 µM; with 786-0 renal, greater than 100000 nM. The TGI with SF-295 CNS is 57.2 µM; in the assay with SR leukemia, 25.1 µM; with HCT-15 colon, greater than 100 µM; with UACC-257 melanoma it was 6.56 µM; with HL-60(TB) leukemia, 59 µM; with SNB-19 CNS, 7.16 µM. In addition, the TGI in the assay on EKVX NSCLC is 17.2 µM; in the assay with M14 melanoma it was greater than 100 µM; in the assay on ACHN renal, greater than 100 µM; with 786-0 renal it was greater than 100 µM.
Turning to `C[CH2][Hg][S]c1ccccc1C(=O)O`, the GI50 with SF-295 CNS was 3.7 µM; with SR leukemia, 444 nM; in the assay on HCT-15 colon, 1070 nM; with UACC-257 melanoma it was 1.18 µM; in the assay on HL-60(TB) leukemia it was 314 nM; with SNB-19 CNS, 2980 nM. For the same compound, the GI50 with EKVX NSCLC was 2050 nM; in the assay on M14 melanoma it was 1360 nM; in the assay on ACHN renal, 1.49 µM; in the assay on 786-0 renal it was 1590 nM. Besides, the TGI in the assay on SF-295 CNS was 16.5 µM; with SR leukemia, 3.75 µM; with HCT-15 colon it was 2.52 µM; in the assay on UACC-257 melanoma, 2.45 µM; in the assay on HL-60(TB) leukemia, 1.18 µM; with SNB-19 CNS it was 12.3 µM. Also, the TGI stood at 5.39 µM with EKVX NSCLC, 2.74 µM with M14 melanoma, 2.83 µM in the assay with ACHN renal and 2.95 µM in the assay with 786-0 renal.
On to `Nc1nc(N)c(CCCCc2ccccc2)c(N)n1`, for which the TGI in the assay with SF-295 CNS, with SR leukemia, in the assay with HCT-15 colon, with UACC-257 melanoma, with HL-60(TB) leukemia and with SNB-19 CNS was greater than 100 µM throughout. In addition, the TGI in the assay on EKVX NSCLC, in the assay on M14 melanoma, in the assay on ACHN renal and in the assay with 786-0 renal was greater than 100 µM each time.
As for `ClC1=C(Cl)C(Cl)(Cl)c2c3c(c4c(c21)C(Cl)(Cl)C(Cl)=C4Cl)C(Cl)(Cl)C(Cl)=C3Cl`, the TGI in the assay on SF-295 CNS, with SR leukemia, in the assay on HCT-15 colon, in the assay on UACC-257 melanoma, with HL-60(TB) leukemia and with SNB-19 CNS was greater than 100 µM throughout. Further, the TGI in the assay on EKVX NSCLC, with M14 melanoma, with ACHN renal and in the assay with 786-0 renal was greater than 100 µM each time.
`Cc1cccc(NC(=O)/C(=N\N)C(c2cnc3ccc([N+](=O)[O-])cc3n2)[N+](=O)[O-])c1C` (stereo not given): the TGI with SF-295 CNS, with SR leukemia, in the assay on HCT-15 colon, in the assay with UACC-257 melanoma, in the assay with HL-60(TB) leukemia and in the assay on SNB-19 CNS was greater than 100 µM throughout. The TGI in the assay with EKVX NSCLC, in the assay with M14 melanoma, in the assay on ACHN renal and with 786-0 renal was greater than 100 µM throughout.
Regarding `O=C1c2c(Br)sc(Br)c2[C@@H](NC(=O)C(F)(F)F)C1Br` (stereo not given in full), the TGI worked out at 31.6 µM in the assay with SF-295 CNS; 5.3 µM with SR leukemia; 4.61 µM with HCT-15 colon; 3.97 µM in the assay on UACC-257 melanoma; 1.59 µM in the assay with HL-60(TB) leukemia; 25.9 µM in the assay on SNB-19 CNS. The TGI in the assay on EKVX NSCLC turned out to be 11.6 µM; in the assay on M14 melanoma it was 6.23 µM; in the assay with ACHN renal, 6.1 µM; in the assay with 786-0 renal, 5.13 µM.
Turning to `COc1cc(C2(C)SCCCS2)cc(OC)c1OC`, the TGI with SF-295 CNS, in the assay with SR leukemia, with HCT-15 colon, with UACC-257 melanoma, in the assay on HL-60(TB) leukemia and in the assay with SNB-19 CNS was greater than 100 µM throughout. Further, the TGI in the assay on EKVX NSCLC, in the assay with M14 melanoma, in the assay on ACHN renal and in the assay on 786-0 renal was greater than 100 µM each time.
As for `COc1cc(C(=O)c2cc(C)c3[nH]c4ccc(O)cc4c3c2C)cc(OC)c1OC`, the GI50 was less than 0.01 µM in the assay on SF-295 CNS; less than 10 nM with SR leukemia; 19.6 nM in the assay on HCT-15 colon; 6.42 µM in the assay with UACC-257 melanoma; 24.6 nM in the assay on HL-60(TB) leukemia; 28.9 nM with SNB-19 CNS. For the same compound, the GI50 in the assay on EKVX NSCLC is 46.6 nM; in the assay with M14 melanoma, 18.5 nM; in the assay with ACHN renal, less than 0.0128 µM; in the assay with 786-0 renal it was less than 18.4 nM. Besides, the TGI was 0.326 µM in the assay with SF-295 CNS; greater than 100 µM with SR leukemia; greater than 100 µM with HCT-15 colon; greater than 100 µM with UACC-257 melanoma; 0.0797 µM in the assay on HL-60(TB) leukemia; greater than 47.3 µM with SNB-19 CNS. The TGI was greater than 100 µM with EKVX NSCLC, greater than 100 µM in the assay on M14 melanoma, greater than 100 µM with ACHN renal and greater than 22.2 µM in the assay on 786-0 renal.
